One series deals with MV4-11 xenografts. The series can be described thus: In vivo efficacy in MV4-11 subcutaneous xenograft model. Conditions: for d9 Tumor Volume (mm^3) / Body Weight Change (%) / Tumor Weight / Tumor weight inhibition rate (%) / RTV (d9): 100 mg/kg BID; for d9 Tumor Volume (mm^3): 9th day after administration; for Body Weight Change (%): 11 consecutive days, NOD-SCID mice; for Tumor Weight / Tumor weight inhibition rate (%): 11 days; for Tumor Weight: tumors dissected at end; for Tumor weight inhibition rate (%): versus vehicle group; for d0 Tumor Volume (mm^3): d0, before grouping for administration (baseline); for RTV (d9): relative tumor volume = d9/d0 tumor volume.

The subject of series [1] is human acute monocytic leukemia cell line MV4-11. Put plainly: MV4-11 MTT cell growth inhibition. The class given is cell-based. To be noted: 144 h, MV4-11 cells, MTT on Day 6. As for the experimental part:
The complete medium required for the culture of human acute monocytic leukemia cell line MV4-11 (Shanghai Cell Bank) for experiment was IMDM (Cat NO. 12440-053, gibco) supplemented with 10% FBS (Cat NO. SA311.02, cellmax). The cells were cultured in an incubator at 37° C. with 5% CO2. The experiment reagents included dimethyl sulfoxide (Tianjin Kemiou Chemical Reagent Co., Ltd.) and MTT (THIAZOLYL BLUE TETRAZOLIUM BROMIDE, CAS. NO. 298-93-1, VWR). The control compound GSK3326595 for experiment was homemade or commercially available. The test compound was encapsulated and stored at 4° C.
Dimethyl sulfoxide was used as a vehicle to fully dissolve the test compound, thereby formulating a stock solution at a concentration of 5×10^−2 mol/L. The stock solution was stored at −20° C. With the complete medium as diluent, the test compound was subjected to gradient dilution to afford dilutions at different concentrations for standby application. In a 96-well culture plate, the suspension of the human acute monocytic leukemia cell line MV4-11 in the complete medium, at a volume of 100 μL/well (2×10^3 cells/well), was added. Afterwards, the dilutions at different concentrations of the corresponding test compounds (100 μL/well) were added, respectively. Each of the test compounds was provided with 8 concentration gradients and three replicates were used for each concentration. The plates were incubated in an incubator at 37° C. with 5% CO2. On Day 6, the plate was treated with MTT (20 μL/well) and incubated for 4 h in an incubator at 37° C. with 5% CO2. The supernatant was discarded. Dimethyl sulfoxide (150 μL/well) was added and mixed well by shaking. The OD value at 550 nm was measured with a microplate reader. Wells containing only cell suspensions without the test compounds were control wells, and wells containing only complete media were blank wells. The cell growth inhibition rate was calculated according to the following equation: Inhibition rate=(OD valuecontrol well−OD valuesample well)/(OD valuecontrol well−OD valueblank well)×100%. According to the inhibition rate at each concentration, the half maximal inhibitory concentration IC50 value was calculated using the SPSS software. 2. Enzymatic Experiment

For a further series, the target named is PRMT5 (Homo sapiens (Human), UniProt O14744). Put plainly: radiometric assay for PRMT5 based on FlashPlate technology. The class given is biochemical. To be noted: PRMT5 5 nM, [3H]-SAM, 60 min at 25° C.; read-out: Enzymology (IC50). As for the experimental part: The radiometric assay for PRMT5 based on FlashPlate technology was adopted to determine IC50 of the test compound.
After dissolved in dimethyl sulfoxide respectively, the test compounds were added into an Echo Qualified 384-well plate and diluted to the desired concentrations. The diluted test compounds were transferred from the Echo Qualified 384-well plate to a 384-well reaction plate using an Echo 550 instrument, and dimethyl sulfoxide was transferred into both the control and blank wells. PRMT5 was added to 1×reaction buffer (including 10 mM Tris-HCl; pH 8.0; 0.01% Tween-20; 1 mM DTT) to form a 1.67×enzyme solution (at an enzyme concentration of 5 nM). A polypeptide substrate and [3H]-SAM were added to 1× reaction buffer to form a 2.5× substrate solution (the terminal concentrations of the substrates were 100 nM and 250 nM, respectively). At a volume of 15 μL/well, the 1.67× enzyme solution was added into wells of the 384-well reaction plate. In case of the blank wells, the enzyme solution was replaced with 15 μL of the 1× reaction buffer. The reaction plate was centrifuged at 1000 rpm for 1 min, and incubated at room temperature for 15 min. To each well of the 384-well reaction plate, 10 μL of the 2.5× substrate solution was added, centrifuged at 1000 rpm for 1 min, and reacted at 25° C. for 60 min. To each well of the 384-well reaction plate, 5 μL of reaction stop solution (which was […] cold SAM solution) was added to terminate the reaction. From each well of the test plate, 25 μL was measured and transferred to Flashplate and left at room temperature for 1 h. Thereafter, the Flashplate was washed with 0.1% Tween-20 solution three times. Readings were taken with MicroBeta 2. The data was converted into the inhibition rate data. Inhibition rate=(conversion ratecontrol well−conversion ratecompound well)/(conversion ratecontrol well−conversion rateblank well)×100%. The IC50curves were fitted using XLFit5.4.0.8. The fitting equation was as follows:Y=Bottom+(Top-Bottom)/(1+(IC50/X)^HillSlope).

A short description of series [2]: Pharmacokinetic experiment in SD rats. To be noted: male, rat, plasma, po, 25 mg/kg.
Method: SD rats (male, 180 g to 200 g, Beijing Vital River Laboratory Animal Technology Co., Ltd.) were administered with the test compounds (solvent: 2% DMSO+98% (0.2 g/mL) hydroxypropyl-β-cyclodextrin, dosing volume: 5 mL/kg) by gavage. Blood was collected from the orbits of the rats at different points in time (0.25, 0.5, 1, 2, 4, 8, 24 h) after administration. The collected whole blood was anticoagulated with heparin sodium and centrifuged at 3000 g to obtain rat plasma samples, and methanol was added thereto to precipitate proteins. The drug concentration in rat plasma after administration was determined by HIPLC-MS/MS method. A drug concentration-time curve was plotted and the pharmacokinetic parameters were calculated. Pharmacokinetic behaviors of the compounds after administration in rats were described by means of the parameter estimation of non-compartmental model based on statistical moment theory.

Molecules are shown by their SMILES. Marks after values point to notes of the source that are not given here.

Sequence of PRMT5 (O14744 whole entry): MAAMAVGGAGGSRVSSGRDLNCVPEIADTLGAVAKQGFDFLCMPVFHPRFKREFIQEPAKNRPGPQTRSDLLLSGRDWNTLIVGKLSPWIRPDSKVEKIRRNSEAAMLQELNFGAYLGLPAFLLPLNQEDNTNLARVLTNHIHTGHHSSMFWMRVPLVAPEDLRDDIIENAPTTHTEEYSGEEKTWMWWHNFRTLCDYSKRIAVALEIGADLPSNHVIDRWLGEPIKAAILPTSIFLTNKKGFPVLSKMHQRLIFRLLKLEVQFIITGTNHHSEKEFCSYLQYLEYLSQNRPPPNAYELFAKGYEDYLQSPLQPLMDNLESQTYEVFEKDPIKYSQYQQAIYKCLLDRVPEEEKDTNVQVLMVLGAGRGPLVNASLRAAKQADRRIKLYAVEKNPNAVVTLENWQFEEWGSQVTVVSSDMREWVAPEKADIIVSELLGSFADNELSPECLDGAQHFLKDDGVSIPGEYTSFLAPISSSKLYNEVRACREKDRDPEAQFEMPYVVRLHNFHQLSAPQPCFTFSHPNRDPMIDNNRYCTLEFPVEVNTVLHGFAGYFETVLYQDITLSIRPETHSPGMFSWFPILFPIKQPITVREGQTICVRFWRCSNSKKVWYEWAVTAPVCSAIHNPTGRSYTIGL
Sequence of PRMT5 (Q9BQA1 whole entry partner): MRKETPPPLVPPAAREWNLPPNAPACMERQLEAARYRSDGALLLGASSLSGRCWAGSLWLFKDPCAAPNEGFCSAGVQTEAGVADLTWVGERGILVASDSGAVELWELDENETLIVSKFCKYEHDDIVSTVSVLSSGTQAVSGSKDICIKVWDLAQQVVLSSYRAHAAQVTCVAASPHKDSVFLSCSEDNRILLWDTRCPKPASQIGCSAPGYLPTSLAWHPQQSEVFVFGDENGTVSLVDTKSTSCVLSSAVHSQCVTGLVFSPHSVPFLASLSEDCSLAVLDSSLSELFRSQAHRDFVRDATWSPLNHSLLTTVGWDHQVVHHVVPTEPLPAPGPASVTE
Method for MV4-11 xenografts: Experimental female NOD-SCID mice, SPF grade, 4 to 5 weeks, were purchased from Beijing Vital River Laboratory Animal Technology Co., Ltd. The mice were intraperitoneally injected with cyclophosphamide at a dose of 100 mg/kg one day before cell inoculation. The human acute monocytic leukemia cell line MV4-11 (1×10^7/0.1 ml/mouse) was subcutaneously inoculated into forelimb axilla of mice to establish a subcutaneous xenograft model. When the tumor volumes reached about 110 mm^3 (10 days after inoculation), the mice were equally grouped according to the tumor volume, with 5 mice in each group, i.e., vehicle group (2% DMSO+98% (0.2 g/mL) hydroxypropyl-β-cyclodextrin) and test drug groups. For the test drug groups, the dose of administration was 100 mg/kg, the dosing volume was 10 mL/kg, the dosing frequency was BID, the tumor diameters were measured twice per week, and the data was recorded. The mice were administered for 11 consecutive days. When the experiment ended, the tumors were dissected and weighed.

Consider `CC(=O)N1CCC(Nc2cc(C(=O)NC[C@H](O)CN3CCc4ccccc4C3)ncn2)CC1` [GSK3326595, reference compound], for which, in the series with MV4-11 xenografts, the “d9 Tumor Volume (mm^3)” value is listed as 135 ± 43** mm^3, the “Body Weight Change (%)” value is reported as −6.8%, the “Tumor Weight” value turned out to be 0.1124 ± 0.0764 g and the “Tumor weight inhibition rate (%)” value came to 84.5%. Further, in the series with MV4-11 xenografts, the “d0 Tumor Volume (mm^3)” value is listed as 165.2 ± 23.1 mm^3 and the “RTV (d9)” value is recorded as 0.8 ± 0.2.

For the compound `O=C(NC[C@H](O)CN1CCc2ccccc2C1)c1cc(NC2CCN(C(=O)C(=NO)C3CC3)CC2)ncn1` [PR-1, (S)-6-((1-(2-cyclopropyl-2-(hydroxyimino)acetyl)piperidin-4-yl)amino)-N-(3-(3,4-dihydroisoquinolin-2(1H)-yl)-2-hydroxypropyl)pyrimidine-4-carboxamide], the concentration for half-maximal inhibition (IC50) (usually the concentration at which inhibition is half-maximal) came to 5.02 nM in series [1] and 13 nM at PRMT5.

As to `CON=C(C(=O)N1CCC(Nc2cc(C(=O)NC[C@H](O)CN3CCc4ccccc4C3)ncn2)CC1)C1CC1` [PR-2, (S)-6-((1-(2-cyclopropyl-2-(methoxyimino)acetyl)piperidin-4-yl)amino)-N-(3-(3,4-dihydroisoquinolin-2(1H)-yl)-2-hydroxypropyl)pyrimidine-4-carboxamide], in series [2], the exposure AUC(0-t) (commonly exposure summed from dosing to a finite time, without extrapolation to infinity) was 821 ng·h/mL; the highest concentration (Cmax) (in general, the highest concentration seen after dosing) amounted to 473 ng/mL; the time of peak concentration (Tmax) (in general, the time from dosing to the highest level) was determined as 30 min. Further, the 50% inhibitory concentration (IC50) on PRMT5 was 13 nM.

As for `CC(=NO)C(=O)N1CCC(Nc2cc(C(=O)NC[C@H](O)CN3CCc4ccccc4C3)ncn2)CC1` [PR-3, (S)-N-(3-(3,4-dihydroisoquinolin-2(1H)-yl)-2-hydroxypropyl)-6-((1-(2-(hydroxyimino)propanoyl)piperidin-4-yl)amino)pyrimidine-4-carboxamide], the figures for the IC50 (in series [1]; on PRMT5) were 1.24 nM and 15 nM, respectively.

With `CON=C(C)C(=O)N1CCC(Nc2cc(C(=O)NC[C@H](O)CN3CCc4ccccc4C3)ncn2)CC1` [PR-4, (S)-N-(3-(3,4-dihydroisoquinolin-2(1H)-yl)-2-hydroxypropyl)-6-((1-(2-(methoxyimino)propanoyl)piperidin-4-yl)amino)pyrimidine-4-carboxamide], in series [1], the IC50 worked out at 6.77 nM. In the series with MV4-11 xenografts, the “d9 Tumor Volume (mm^3)” value was 55.7 ± 19.7***## mm^3, the “Body Weight Change (%)” value is on record as −6.1%, the “Tumor Weight” value came to 0.0648 ± 0.0267 g and the “Tumor weight inhibition rate (%)” value worked out at 91.1%. In the series on MV4-11 xenografts, the “d0 Tumor Volume (mm^3)” value is 165.3 ± 27.5 mm^3 and the “RTV (d9)” value stood at 0.4 ± 0.1.

In series [1], `CON=C(CC(C)C)C(=O)N1CCC(Nc2cc(C(=O)NC[C@H](O)CN3CCc4ccccc4C3)ncn2)CC1` [PR-5, (S)-N-(3-(3,4-dihydroisoquinolin-2(1H)-yl)-2-hydroxypropyl)-6-((1-(2-(methoxyimino)-4-methylpentanoyl)piperidin-4-yl)amino)pyrimidine-4-carboxamide] returned a concentration for half-maximal inhibition (IC50) of 1.44 nM. Besides, in series [2], the AUC(0-t) came out at 674 ng·h/mL, the maximum concentration (Cmax) stood at 660 ng/mL and the Tmax was 20 min. Moreover, the concentration for half-maximal inhibition (IC50) on PRMT5 was found to be 23 nM.

As for `O=C(NC1CC2(C1)CC(Nc1cc(C(=O)NC[C@H](O)CN3CCc4ccccc4C3)ncn1)C2)C(=NO)C1CC1` (stereo partly drawn) [PR-6, (S)-6-((6-(2-cyclopropyl-2-(hydroxyimino)acetamido)spiro[3.3]heptan-2-yl)amino)-N-(3-(3,4-dihydroisoquinolin-2(1H)-yl)-2-hydroxypropyl)pyrimidine-4-carboxamide], the half-maximal inhibitory concentration (IC50) in series [1] turned out to be 1.9 nM; on PRMT5 it was 16 nM.

For the compound `CON=C(C(=O)NC1CC2(C1)CC(Nc1cc(C(=O)NC[C@H](O)CN3CCc4ccccc4C3)ncn1)C2)C1CC1` (stereo partly drawn) [PR-7, (S)-6-((6-(2-cyclopropyl-2-(methoxyimino)acetamido)spiro[3.3]heptan-2-yl)amino)-N-(3-(3,4-dihydroisoquinolin-2(1H)-yl)-2-hydroxypropyl)pyrimidine-4-carboxamide], the IC50 in series [1] was determined as 1.04 nM. Besides, in the series on MV4-11 xenografts, the “d9 Tumor Volume (mm^3)” value is 60.2 ± 20.1***## mm^3, the “Body Weight Change (%)” value was −6.9%, the “Tumor Weight” value worked out at 0.0710 ± 0.0353 g and the “Tumor weight inhibition rate (%)” value is reported as 90.2%. Besides, in the series on MV4-11 xenografts, the “d0 Tumor Volume (mm^3)” value is listed as 165.6 ± 28.1 mm^3 and the “RTV (d9)” value turned out to be 0.4 ± 0.1. In addition, in series [2], the AUC(0-t) was 2540 ng·h/mL, the Cmax was 1120 ng/mL and the Tmax amounted to 40 min. In addition, the IC50 on PRMT5 was determined as 14 nM.

Consider `CC(=NO)C(=O)NC1CC2(C1)CC(Nc1cc(C(=O)NC[C@H](O)CN3CCc4ccccc4C3)ncn1)C2` (stereo partly drawn) [PR-8, (S)-N-(3-(3,4-dihydroisoquinolin-2(1H)-yl)-2-hydroxypropyl)-6-((6-(2-(hydroxyimino)propanamido)spiro[3.3]heptan-2-yl)amino)pyrimidine-4-carboxamide], for which the IC50 turned out to be 0.98 nM in series [1] and 19 nM on PRMT5.

For `CON=C(C)C(=O)NC1CC2(C1)CC(Nc1cc(C(=O)NC[C@H](O)CN3CCc4ccccc4C3)ncn1)C2` (stereo partly drawn) [PR-9, (S)-N-(3-(3,4-dihydroisoquinolin-2(1H)-yl)-2-hydroxypropyl)-6-((6-(2-(methoxyimino)propanamido)spiro[3.3]heptan-2-yl)amino)pyrimidine-4-carboxamide], in series [1], 6.84 nM corresponded to half-maximal inhibition (IC50). Further, in series [2], the AUC(0-t) worked out at 1270 ng·h/mL, the concentration peaked (Cmax) at 875 ng/mL and the Tmax stood at 30 min. Besides, the IC50 at PRMT5 was determined as 23 nM.

As to `O=C(NC[C@H](O)CN1CCc2ccccc2C1)c1cc(NC2CC3(C2)CN(C(=O)C(=NO)C2CC2)C3)ncn1` [PR-11, (S)-6-((2-(2-cyclopropyl-2-(hydroxyimino)acetyl)-2-azaspiro[3.3]heptan-6-yl)amino)-N-(3-(3,4-dihydroisoquinolin-2(1H)-yl)-2-hydroxypropyl)pyrimidine-4-carboxamide], the IC50 in series [1] worked out at 1.4 nM; on PRMT5 it was 18 nM.

For the compound `CON=C(C(=O)N1CC2(CC(Nc3cc(C(=O)NC[C@H](O)CN4CCc5ccccc5C4)ncn3)C2)C1)C1CC1` [PR-12, (S)-6-((2-(2-cyclopropyl-2-(methoxyimino)acetyl)-2-azaspiro[3.3]heptan-6-yl)amino)-N-(3-(3,4-dihydroisoquinolin-2(1H)-yl)-2-hydroxypropyl)pyrimidine-4-carboxamide], the IC50 in series [1] was found to be 0.691 nM; at PRMT5 it was 2.7 nM.
